In article PMC6547740, “Potent and specific MTH1 inhibitors targeting gastric cancer” (Cell Death & Disease, 2019):

Experiments:
HepG2 cells = assay: MTT cell viability, HepG2; type: cell-based; settings: Homo sapiens, liver cancer cell line, 72 h
Description: (§1) The cell viability was determined by 3-(4,5-dimethylthiazol-2-yl)-2,5-diphenyltetrazolium bromide (MTT) assay, according to the manufacturer’s instructions. 1 day before treatment, cells were seeded into 96-well plates at a concentration of 2–5 × 10^3 cells per well, followed by treatment with fresh medium containing serial dilutions of candidate compounds for 48 or 72 h, 20 μL of MTT solution (5 mg/mL in PBS) was then added to each well. After treatment, the plates were incubated at 37 °C for another 4 h. Subsequently, the MTT solution was removed and 150 μL of DMSO was added to each well for 10 min, and then the plates were shaken to dissolve the dark blue crystal (formazan), the absorbance was detected at 570 nm using a BioTek microplate reader. The data were analyzed using SPSS 20 software.

EC109 cells = assay: MTT cell viability, EC109; type: cell-based; settings: Homo sapiens, ECa-109, esophageal cancer cell line, 72 h
Description: as §1

TE-1 cells = assay: MTT cell viability, TE-1; type: cell-based; settings: Homo sapiens, 72 h
Description: as §1

MGC-803 cells = assay: MTT cell viability, MGC-803; type: cell-based; settings: Homo sapiens, gastric cancer cell line, 72 h
Description: as §1

HGC-27 cells [1] = assay: MTT cell viability, HGC-27; type: cell-based; settings: Homo sapiens, gastric cancer cell line, 72 h
Description: as §1

SGC-7901 cells = assay: MTT cell viability, SGC-7901; type: cell-based; settings: Homo sapiens, gastric cancer cell line, 72 h
Description: as §1

pc9 cells = assay: MTT cell viability, pc9; type: cell-based; settings: Homo sapiens, PC-9, 72 h
Description: as §1

H1975 cells = assay: MTT cell viability, H1975; type: cell-based; settings: Homo sapiens, NCI-H1975, 72 h
Description: as §1

HGC-27 cells [2] = assay: Colony formation assay, HGC-27; type: cell-based, human; settings: HGC-27, 7 days treatment, compared with DMSO or MI-929
Description: The day before treatment, cells were seeded into six-well plates at a concentration of 1 × 10^3 cells per well, and then the media were replaced with fresh media containing serial concentrations of candidate compounds. After 7 days of treatment, the cells were fixed with 75% ethanol, stained with 0.1% crystal violet solution and captured by the microscopy (Leica). After that, the crystal violet crystals were dissolved by adding methanol. The absorbance at 595 nm was measured by a BioTek micro plate reader. In the end, the data were analyzed using the GraphPad Prism 5 software.

HGC-27 cells [3] = assay: 8-oxo-dG assay (Cy3-conjugated avidin), HGC-27; type: cell-based, human; settings: HGC-27, 5 µM, 48 h, compared with DMSO
Description: Intracellular 8-oxo-dG levels were measured by staining with Cy3-conjugated avidin[65]. Cells were seeded on coverslips in 24-well plates (1–1.5 × 10^4 cells/well) overnight, and then transfected with candidate compounds. After 48 h, the cells were fixed with ice-cold methanol in Tris-buffered saline (TBS) for 15 min and blocked, using TBS with 0.1% Triton X-100 and 15% fetal bovine serum for 1 h. Then, the cells were stained with Cy3-conjugated avidin (0.5 µg/mL) for 1 h at room temperature. DNA was counterstained with 4,6-diamidino-2-phenylindole(DAPI). Images were acquired in a Nikon Eclipse TE 2000-S fluorescence microscope.

HGC-27 cells [4] = assay: Western blot of DNA damage response markers, HGC-27; type: cell-based, human; settings: HGC-27, 1-12 µM 48 h or 12 µM 12-48 h, dose and time-dependently, vs DMSO
Description: MGC-803, HGC-27 and GES-1 cells were seeded into 100mm^2 plastic dishes(1 × 10^5 cells/well) and incubated overnight prior to the addition of compound MI-743 at 1, 2, 4, 8 and 12 µM for 48 h or compound MI-743 at 12 µM for 12, 24, 36 and 48 h, respectively. After treatment, the cells were harvested and lysed with RIPA cell lysis buffer, containing protease inhibitor cocktail. Then, the cells were centrifuged at 12,000 × g for 20 min at 4 °C. The supernatant were collected and the concentration was determined by a Bicinchoninic Acid (BCA) Protein Assay kit, denatured at 100 °C for 10 min, separated by SDS−PAGE and transferred to 0.22 μm nitrocellulose membranes. After blocking by PBS containing 5% skim milk for 2 h at room temperature, the membranes were probed with the appropriate primary antibodies (1:500~1:1000) at 4 °C overnight, followed by the treatment of horseradish-peroxidase-conjugated secondary antibody (1:10000) at room temperature for 2 h. Subsequently, the membranes were washed with PBST, examined by enhanced chemiluminescence and the data was determined using Image J software.

[5] = Body weight and organ H&E staining in xenograft mice; type: in vivo, BALB/c nude mice; settings: 40 mg/kg, gavage once a day for 25 days, vs oil group
Description: All animal experiments were conducted according to the guidelines of the Institutional Animal Care and Use Committee of Zhengzhou University. Four or five-week-old female BALB/c nude mice, weighing 18–21 g were purchased from Hunan Slack Scene of Laboratory Animal Company, LTD (Hunan, China). They received abundant food and water and were housed in a laminar flow under sterilized condition. 200 µL MGC-803 cells at the concentration of 5 × 10^7/mL were injected into the right scapular region of the mice. When most of the tumor volumes reached 100 mm^3, mice were randomly divided into oil (solvent) group and MI-743(40 mg/kg) treatment group. Then, they received gavage daily for 25 days. The body weight was weighed every 2 days and the tumor volumes were measured every 4 days. At the 25th day, the tumors were surgically removed and weighed. The tumor size was determined by vernier caliper measurements and the tumor and major organs were fixed in 4% buffered paraformaldehyde and paraffin-embedded for hematoxylin and eosin (HE) staining, immunohistochemistry (IHC) and TUNEL assay.

MTH1 = MTH1 (Homo sapiens, UniProt P36639); assay: MTH1 recombinant protein activity / inhibitor screening (malachite green); type: biochemical; parameters: His-tag; made in house; host or cells: E. coli BL21(DE3); settings: 5 nM recombinant MTH1, dGTP substrate, absorbance 630 nm; read-out: IC50 (MTH1 inhibition)
Description: On the basis of the ability of MTH1 in converting dGTP to dGMP and pyrophosphate, and the latter can then be hydrolyzed to […] by inorganic pyrophosphatase, the MTH1 activity was designed to measure the product of […], after its reaction with malachite green and ammonium molybdate(Fig. 2l), the green associated complex was measured at 630 nm by PerkinElmer Envision microplate reader.
Firstly, the assay buffer (100 mM Tris-acetate at pH 8.0, 40 mM NaCl, 10 mM Mg-acetate, 0.005% Tween 20 and 1 mM DTT) was added into a 96-well plate. Then, 5 nM recombinant human MTH1, […] dGTP and 0.2U/ml […] were added in sequence. After 60 min reaction, the mixture of 0.45 mg/mL malachite green and 4.2% ammonium molybdate in proportion of 3:1 were added. Then, the plates were incubated and shaken at room temperature for another 60 min. The absorbance was measured at 630 nm using the PerkinElmer Envision micro plate reader.

C#CCSc1nc(NNC(N)=S)c(C#N)c(-c2ccc3oc(=O)ccc3c2)n1 [MI-743, 2-(5-cyano-6-(2-oxo-2H-chromen-6-yl)-2-(prop-2-yn-1-ylthio)pyrimidin-4-yl)hydrazine-1-carbothioamide]
IC50 (HepG2 cells): 6.73 ± 0.83 µM
IC50 (EC109 cells): 6.99 ± 0.84 µM
IC50 (TE-1 cells): 12.8 ± 1.07 µM
IC50 (MGC-803 cells): 2.91 ± 0.46 µM
IC50 (HGC-27 cells [1]): 1.14 ± 0.16 µM
IC50 (SGC-7901 cells): 10.4 ± 1.01 µM
IC50 (pc9 cells): 9.53 ± 0.98 µM
IC50 (H1975 cells): 15.1 ± 1.18 µM
colony formation (HGC-27 cells [2]): smaller and fewer colonies
levels of 8-oxo-dG (HGC-27 cells [3]): sharply increased
expression levels of p53pS15, ATMpS1981 and p21 (HGC-27 cells [4]): significantly increased
H&E staining of the liver, kidney, lung, heart and spleen [5]: no signs of toxicity
mouse body weight [5]: did not present obvious change
IC50 (MTH1): 0.0914 ± 0.00145 µM
